Values quoted from earlier work in US9056899B2 (priority 2008, dated 2015).
Where two headings read alike, the source gives them in different places.

Key:
Details in all cases: cited from earlier work
[1] = test system: BW25113 and gene knockouts
[2] = test system: BW25113 and gene knockouts; remark: listed apart in the source
[3] = test system: BW25113 and gene knockouts from KEIO collection
[4] = test system: BW25113 and gene knockouts from KEIO collection; remark: listed apart in the source

gentamicin
0.7 µg/mL: MIC Plating ([1]; dapF knockout) | MIC Plating ([1]; gpmM knockout) | MIC Plating ([1]; rfaC knockout) | MIC Plating ([1]; rffA knockout) | MIC Plating ([1]; rnt knockout) | MIC Plating ([1]; rplI knockout)
>0.8 µg/mL: MIC Plating ([1]; JW5360 knockout)
0.6 µg/mL: MIC Plating ([1]; rpmE knockout)
0.5 µg/mL: MIC Plating ([1]; hflK knockout) | MIC Plating ([1]; rpoN knockout) | MIC Plating ([1]; sapC knockout) | MIC Plating ([1]; secG knockout) | MIC Plating ([1]; tatC knockout) | MIC Plating ([1]; tolC knockout) | MIC Plating ([1]; tusC knockout) | MIC Plating ([1]; tusD knockout) | MIC Plating ([1]; yidD knockout)
0.8 µg/mL: MIC Plating ([1]; BW25113 starting strain)
>0.5 µg/mL: MIC Plating ([1]; envC knockout) | MIC Plating ([1]; xapR knockout) | MIC Plating ([1]; yfgC knockout)
>0.7 µg/mL: MIC Plating ([1]; yciM knockout)

Cc1cc(NS(=O)(=O)c2ccc(N)cc2)no1 [Sulfamethaxazone]
600 µg/mL: MIC Plating ([2]; fis knockout)
550 µg/mL: MIC Plating ([2]; deoT knockout) | MIC Plating ([2]; dksA knockout) | MIC Plating ([2]; hns knockout) | MIC Plating ([2]; pstA knockout) | MIC Plating ([2]; pstS knockout) | MIC Plating ([2]; qmcA knockout) | MIC Plating ([2]; rfaE knockout) | MIC Plating ([2]; rpmF knockout) | MIC Plating ([2]; yciS knockout) | MIC Plating ([2]; ygcO knockout) | MIC Plating ([2]; yiiU knockout) | MIC Plating ([2]; yneE knockout)
350 µg/mL: MIC Plating ([2]; nudB knockout) | MIC Plating ([2]; recB knockout) | MIC Plating ([2]; recC knockout) | MIC Plating ([2]; rimK knockout)
300 µg/mL: MIC Plating ([2]; dapF knockout) | MIC Plating ([2]; dnaK knockout)
400 µg/mL: MIC Plating ([2]; JW5115 knockout) | MIC Plating ([2]; envC knockout) | MIC Plating ([2]; gpmM knockout) | MIC Plating ([2]; lpdA knockout) | MIC Plating ([2]; recA knockout) | MIC Plating ([2]; tolC knockout) | MIC Plating ([2]; yfgL knockout)
>550 µg/mL: MIC Plating ([2]; dcd knockout) | MIC Plating ([2]; resA knockout) | MIC Plating ([2]; xapR knockout) | MIC Plating ([2]; ybgF knockout) | MIC Plating ([2]; yciM knockout) | MIC Plating ([2]; ydjI knockout) | MIC Plating ([2]; yjjY knockout)
500 µg/mL: MIC Plating ([2]; JW5474 knockout) | MIC Plating ([2]; degP knockout) | MIC Plating ([2]; lptB knockout) | MIC Plating ([2]; pgmB knockout) | MIC Plating ([2]; recG knockout) | MIC Plating ([2]; rplA knockout) | MIC Plating ([2]; rpsU knockout) | MIC Plating ([2]; ybeY knockout) | MIC Plating ([2]; ylcG knockout) | MIC Plating ([2]; ymfI knockout)
1000 µg/mL: MIC Plating ([2]; BW25113 starting strain)

O=C(O)c1cn(C2CC2)c2cc(N3CCNCC3)c(F)cc2c1=O [Ciprofloxacin]
6 ng/mL: MIC Plating ([3]; recG knockout) | MIC Plating ([3]; uvrD knockout) | MIC Plating ([3]; xseA knockout) | MIC E-Test ([4]; fis knockout) | MIC E-Test ([4]; recG knockout) | MIC E-Test ([4]; xseA knockout)
10 ng/mL: MIC Plating ([3]; dksA knockout) | MIC Plating ([3]; pgmB knockout) | MIC Plating ([3]; recN knockout) | MIC Plating ([3]; ruvA knockout)
4 ng/mL: MIC E-Test ([4]; tolC knockout)
2 ng/mL: MIC E-Test ([4]; recA knockout)
7.5 ng/mL: MIC Plating ([3]; acrA knockout) | MIC Plating ([3]; deoT knockout) | MIC Plating ([3]; hfq knockout) | MIC Plating ([3]; ihfA knockout) | MIC Plating ([3]; recB knockout) | MIC Plating ([3]; ybgC knockout) | MIC Plating ([3]; ybgF knockout) | MIC Plating ([3]; ychJ knockout) | MIC Plating ([3]; yciM knockout) | MIC Plating ([3]; ygcO knockout)
16 ng/mL: MIC E-Test ([4]; BW25113 starting strain)
8 ng/mL: MIC Plating ([3]; acrB knockout) | MIC Plating ([3]; xseB knockout) | MIC E-Test ([4]; recC knockout) | MIC E-Test ([4]; ruvC knockout)
8.75 ng/mL: MIC Plating ([3]; hrpA knockout) | MIC Plating ([3]; yjjY knockout)
20 ng/mL: MIC Plating ([3]; BW25113 starting strain)
5 ng/mL: MIC Plating ([3]; tolC knockout) | MIC E-Test ([4]; uvrD knockout)
>8.75 ng/mL: MIC Plating ([3]; fis knockout) | MIC Plating ([3]; qmcA knockout) | MIC Plating ([3]; recA knockout) | MIC Plating ([3]; recC knockout) | MIC Plating ([3]; rimK knockout) | MIC Plating ([3]; rseA knockout) | MIC Plating ([3]; ruvC knockout)
